PubChem BioAssay AID248 (DTP/NCI, 2004)
Several values for one entry are separate records, joined by “and”; a condition that tells them apart may be missing. Equal entries are not always repeated. Toxic doses and inconclusive results are not listed. Rule as the data show it: active = T/C of 150% or more; inactive = T/C below 125%.

System: L1210 leukemia ip in BDF1 mice, survival T/C
Assay: NCI In Vivo Anticancer Drug Screen. Data for tumor model L1210 Leukemia (intraperitoneal) in B6D2F1 (BDF1) mice
Conditions: endpoint: mean survival time, higher = longer survival
In short: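 Each compound was tested against a transplantable tumor grown in mice. The endpoint was survival, with treated animals benchmarked against vehicle controls as a simple ratio.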

[1] = dose: 100.0 mg/kg/injection, schedule: Q01DX009 (ip), vehicle: saline with Tween-80
[2] = dose: 200.0 mg/kg/injection, schedule: Q01DX009 (ip), vehicle: saline with Tween-80
[3] = dose: 100.0 mg/kg/injection, schedule: Q04DX003 (ip), vehicle: Klucel (hydroxypropylcellulose) (HPC)
[4] = dose: 200.0 mg/kg/injection, schedule: Q04DX003 (ip), vehicle: Klucel (hydroxypropylcellulose) (HPC)
[5] = dose: 400.0 mg/kg/injection, schedule: Q04DX003 (ip), vehicle: Klucel (hydroxypropylcellulose) (HPC)
[6] = dose: 100.0 mg/kg/injection, schedule: Q04DX003 (ip), vehicle: saline with Tween-80
[7] = dose: 400.0 mg/kg/injection, schedule: Q01DX009 (ip), vehicle: saline with Tween-80
[8] = dose: 400.0 mg/kg/injection, schedule: Q04DX003 (ip), vehicle: saline with Tween-80

Measured: T/C

O=[N+]([O-])/C=C/c1ccccc1F
inactive: dose: 18.75 mg/kg/injection, schedule: Q04DX003 (ip), vehicle: Klucel (hydroxypropylcellulose) (HPC) 95 % of control | dose: 37.5 mg/kg/injection, schedule: Q04DX003 (ip), vehicle: Klucel (hydroxypropylcellulose) (HPC) 98 % of control | dose: 75.0 mg/kg/injection, schedule: Q04DX003 (ip), vehicle: Klucel (hydroxypropylcellulose) (HPC) 91 % of control

CCCCOc1ccc(CC(N)C(=O)O)cc1N(CCCl)CCCl (centres undefined)
inactive: dose: 6.6 mg/kg/injection, schedule: Q01DX001 (ip), vehicle: carboxymethylcellulose (CMC) 111 % of control | dose: 10.0 mg/kg/injection, schedule: Q01DX001 (ip), vehicle: carboxymethylcellulose (CMC) 116 % of control | dose: 10.0 mg/kg/injection, schedule: Q01DX001 (ip), vehicle: saline 122 % of control | dose: 30.0 mg/kg/injection, schedule: Q01DX001 (ip), vehicle: saline 107 % of control | dose: 60.0 mg/kg/injection, schedule: Q01DX001 (ip), vehicle: saline 102 % of control | dose: 90.0 mg/kg/injection, schedule: Q01DX001 (ip), vehicle: saline 101 % of control

CCc1ccc(C(C)(C)C)cc1
inactive: dose: 50.0 mg/kg/injection, schedule: Q01DX009 (ip), vehicle: saline with Tween-80 95 % of control | [1] 95 % of control | [2] 107 % of control

O/N=C1/CCCC/C1=C/C=C/c1ccccc1
inactive: dose: 100.0 mg/kg/injection, schedule: Q01DX009 (ip), vehicle: Klucel (hydroxypropylcellulose) (HPC) 97 % of control | [3] 100 % of control | dose: 200.0 mg/kg/injection, schedule: Q01DX009 (ip), vehicle: Klucel (hydroxypropylcellulose) (HPC) 97 % of control | [4] 94 % of control | dose: 400.0 mg/kg/injection, schedule: Q01DX009 (ip), vehicle: Klucel (hydroxypropylcellulose) (HPC) 97 % of control | [5] 93 % of control

O=C1C(C2OC2c2ccccc2)CCCC1C1OC1c1ccccc1 (centres undefined)
inactive: dose: 100.0 mg/kg/injection, schedule: Q01DX009 (ip), vehicle: saline sonified 94 % of control | [3] 97 % of control | dose: 200.0 mg/kg/injection, schedule: Q01DX009 (ip), vehicle: saline sonified 97 % of control | [4] 98 % of control | dose: 400.0 mg/kg/injection, schedule: Q01DX009 (ip), vehicle: saline sonified 103 % of control | [5] 97 % of control

C/C=C\C(C)C(C)C (centres undefined)
inactive: dose: 50.0 mg/kg/injection, schedule: Q01DX009 (ip), vehicle: saline 93 % of control | dose: 100.0 mg/kg/injection, schedule: Q01DX009 (ip), vehicle: saline 97 % of control | dose: 200.0 mg/kg/injection, schedule: Q01DX009 (ip), vehicle: saline 93 % of control

Oc1ccccc1C=Nc1ccccc1O.[Zn+2]
inactive: dose: 100.0 mg/kg/injection, schedule: Q01DX001 (ip), vehicle: other 94 % of control | dose: 200.0 mg/kg/injection, schedule: Q01DX001 (ip), vehicle: other 91 % of control | dose: 400.0 mg/kg/injection, schedule: Q01DX001 (ip), vehicle: other 91 % of control

Cc1ccc([N+](=O)[O-])cc1NC(=O)N(Cc1ccccc1)Cc1ccccc1
inactive: dose: 100.0 mg/kg/injection, schedule: Q04DX002 (ip), vehicle: Klucel (hydroxypropylcellulose) (HPC) 95 % of control | dose: 200.0 mg/kg/injection, schedule: Q04DX002 (ip), vehicle: Klucel (hydroxypropylcellulose) (HPC) 100 % of control | dose: 400.0 mg/kg/injection, schedule: Q04DX002 (ip), vehicle: Klucel (hydroxypropylcellulose) (HPC) 106 % of control

O=C(COc1ccc(Br)cc1Br)OCCCl
inactive: dose: 100.0 mg/kg/injection, schedule: Q01DX001 (ip), vehicle: saline 100 % of control | dose: 200.0 mg/kg/injection, schedule: Q01DX001 (ip), vehicle: saline 117 % of control | dose: 400.0 mg/kg/injection, schedule: Q01DX001 (ip), vehicle: saline 103 % of control

CCOC(=O)c1ccc(N(CC(O)CN=[N+]=[N-])S(=O)(=O)c2ccc(C)cc2)cc1 (centres undefined)
inactive: dose: 100.0 mg/kg/injection, schedule: Q01DX001 (ip), vehicle: saline with Tween-80 101 % of control | [1] 102 % of control and 107 % of control | dose: 100.0 mg/kg/injection, schedule: Q04DX002 (ip), vehicle: saline with Tween-80 98 % of control | [6] 88 % of control | dose: 200.0 mg/kg/injection, schedule: Q01DX001 (ip), vehicle: saline with Tween-80 101 % of control | [2] 95 % of control and 100 % of control | dose: 200.0 mg/kg/injection, schedule: Q04DX002 (ip), vehicle: saline with Tween-80 93 % of control and 89 % of control | dose: 400.0 mg/kg/injection, schedule: Q01DX001 (ip), vehicle: saline with Tween-80 104 % of control | [7] 104 % of control and 91 % of control | dose: 400.0 mg/kg/injection, schedule: Q04DX002 (ip), vehicle: saline with Tween-80 96 % of control and 89 % of control | [8] 88 % of control

Cc1cc(Cl)c2ccccc2c1N
inactive: [1] 106 % of control | [6] 104 % of control | [2] 96 % of control | dose: 200.0 mg/kg/injection, schedule: Q04DX003 (ip), vehicle: saline with Tween-80 102 % of control | [7] 98 % of control | [8] 100 % of control

CN(C)C1(Cc2ccc(Cl)cc2)c2ccccc2-c2ccccc21
inactive: dose: 100.0 mg/kg/injection, schedule: Q01DX009 (ip), vehicle: other 94 % of control | dose: 100.0 mg/kg/injection, schedule: Q04DX003 (ip), vehicle: other 105 % of control | dose: 200.0 mg/kg/injection, schedule: Q01DX009 (ip), vehicle: other 98 % of control | dose: 200.0 mg/kg/injection, schedule: Q04DX003 (ip), vehicle: other 100 % of control | dose: 400.0 mg/kg/injection, schedule: Q01DX009 (ip), vehicle: other 104 % of control | dose: 400.0 mg/kg/injection, schedule: Q04DX003 (ip), vehicle: other 115 % of control
